Experimental data reported in PMC7804859, “A metabolically stable apelin-17 analog decreases AVP-induced antidiuresis and improves hyponatremia” (Nature Communications, 2021).
Where “and” joins values, the source holds several entries; their conditions need not be identical. Equal entries are not always repeated. One block for each compound: values may come before it. Ends that are not written are not given here.

Columns and labels:
human V2-R = molecular target: T1, human V2-R (Homo sapiens, UniProt P30518); experiment: cAMP production in HEK-293 T cells expressing the human V2-R (HTRF); type: cell-based; settings: FSK 5.10-6M
T1 construct: host or cells: HEK-293T cells, transient transfection
T1 sequence (P30518 whole entry): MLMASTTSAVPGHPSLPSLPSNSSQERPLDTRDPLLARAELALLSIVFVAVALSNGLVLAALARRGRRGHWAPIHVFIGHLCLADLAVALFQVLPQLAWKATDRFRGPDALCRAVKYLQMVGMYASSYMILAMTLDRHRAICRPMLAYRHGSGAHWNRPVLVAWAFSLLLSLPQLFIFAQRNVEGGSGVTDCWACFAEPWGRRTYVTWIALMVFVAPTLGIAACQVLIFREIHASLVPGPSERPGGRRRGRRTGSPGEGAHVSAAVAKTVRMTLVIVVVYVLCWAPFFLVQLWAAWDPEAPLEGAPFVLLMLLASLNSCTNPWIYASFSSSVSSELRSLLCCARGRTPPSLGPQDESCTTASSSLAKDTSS
Protocol: (§1) 152 Supplementary Methods
(§2) 154 We quantified cAMP production with the cAMP dynamic 2 assay kit (Cisbio Bioassays,
(§3) 155 Codolet, France), which is based on homogeneous time-resolved fluorescence (HTRF)
156 technology, as previously described 1. […]
For cells expressing the V2-R, HEK-
160 293T cells were transiently transfected with the human V2-R (cDNA Resource Center), after
161 48h, 4000 cells/well were added to white 384-well optiplates and stimulated either with 5
(§4) Cells were then lysed, and
(§5) 165 cAMP levels were determined in accordance with the kit manufacturer’s instructions.
(§6) 166 Stimulation was performed in stimulation buffer-IBMX (SBI) (Hank’s balanced salt solution
(§7) 167 (HBSS-Life Technology), 5 mmol/l Hepes, 0.1% BSA stabilizer (Perkin Elmer), 1 mmol/l
(§8) 168 isobutylmethylxanthine (IBMX, Sigma Aldrich, pH 7.4)). […]

in vivo [1] = settings: rat, in vivo, iv
Protocol: (§9) 187 Apelin radioimmunoassay
(§10) 188 Plasma samples (0.5 ml) were acidified with 0.175 ml of 3 mol/l HCl and stored at -80°C
(§11) 189 until use for apelin RIA. Before thawing the sample on ice, 0.05% BSA was added, and the
(§12) 190 samples were centrifuged at 20000 x g at 4°C for 10 min. The supernatants were collected and
(§13) 191 the pH was adjusted to 6.5 with 10 mol/l NaOH and 2 mol/l Tris-HCl buffer (pH 7.4). Apelin
(§14) 192 was extracted from plasma by mixing the supernatant with 0.3 ml of 0.1% BSA in H2O and 1
(§15) 193 ml of 1% trifluoroacetic acid (TFA) - 0.1% BSA, and running the mixture on a Sep-Pak C18
(§16) 194 cartridge (Waters) previously washed with 2 ml 100% acetonitrile and equilibrated with 5 ml
(§17) 195 1% TFA - 0.1% BSA. The columns then were washed with 3 ml 1% TFA - 0.1% BSA and
(§18) 196 apelin was eluted with 1.5 ml 100% acetonitrile. […]
(§19) 208 Plasma or brain apelin levels w ere deter mined by RIA. Samples (0.1ml) w ere mixed with 125I-
(§20) 211 dilution: 1/4500) to give a total volume of 0.2 ml and were incubated at 4°C overnight. We
(§21) 212 used this radioligand instead of [Glp65, Nle75, Tyr77] [125I]-apelin13 since the substitution of
(§22) 214 derivatives as described previously by 3,4.
(§23) 215 We then added 0.5 ml of Amerlex (Amersham RPN 510), and the resulting mixture was
(§24) 216 incubated for 10 min at room temperature. The tubes were centrifuged at 2600 x g at 4°C for
217 20 min. The supernatant was removed and the radioactivity of the precipitates was measured.
218 We assessed the cross-reactivity of the apelin antiserum with various N- and C-terminally
232 according to the following equation: [plasma apelin] tx = [plasma apelin] t0 * e(-kt) , where k is
233 the elimination rate constant. […]

rat apelin-R = molecular target: T2, rat apelin-R (Rattus norvegicus, UniProt Q9JHG3); experiment: Radioligand binding ([125I]-pE13F) to membranes from CHO cells stably expressing rat apelin-R-EGFP; settings: 1 h 20 °C, pH 7.4, new batch of LIT01-196
T2 construct: expressed in transfected cells; membrane preparation
T2 sequence (Q9JHG3 1-377): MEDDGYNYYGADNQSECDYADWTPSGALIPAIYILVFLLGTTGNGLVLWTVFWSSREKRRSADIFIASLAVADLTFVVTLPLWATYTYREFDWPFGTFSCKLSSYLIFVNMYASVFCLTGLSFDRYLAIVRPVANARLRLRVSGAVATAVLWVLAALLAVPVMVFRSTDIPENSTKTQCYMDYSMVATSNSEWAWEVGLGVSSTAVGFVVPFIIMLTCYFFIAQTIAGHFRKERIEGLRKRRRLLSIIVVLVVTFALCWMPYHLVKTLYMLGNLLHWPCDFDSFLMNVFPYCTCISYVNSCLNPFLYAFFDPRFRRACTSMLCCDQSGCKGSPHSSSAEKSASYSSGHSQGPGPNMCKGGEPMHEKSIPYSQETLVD
Protocol: Membranes from CHO cells stably expressing rat apelin-R-EGFP were prepared as previously described[23]. […] The reaction was stopped by adding ice-cold binding buffer and filtering through Whatman GF/C filters. The filters were washed and radioactivity was counted with a Wizard 1470 Wallac gamma counter (PerkinElmer, Turku, Finland).

in vivo [2] = settings: mouse, in vivo, iv
Protocol: as §9, §10, §11, §12, §13, §14, §15, §16, §17, §18, §19, §20, §21, §22, §23, §24
217 20 min. The supernatant was removed and the radioactivity of the precipitates was measured. […]

rat apelin-R-EGFP = molecular target: T3, rat apelin-R-EGFP (Rattus norvegicus, UniProt Q9JHG3); experiment: Inhibition of forskolin-induced cAMP production in CHO cells stably expressing rat apelin-R-EGFP (HTRF); type: cell-based; settings: 5 µmol/l forskolin, 30 min 20 °C
T3 construct: expressed in transfected cells
T3 sequence (Q9JHG3 1-377): T2 sequence (Q9JHG3 1-377)
Protocol: as §1, §2, §3
156 technology, as previously described 1. For cells expressing the Apelin-R, 2000 CHO cells/well
157 stably expressing rat apelinR-EGFP (clone B70) were added to the 384-well plate and
158 stimulated with 5 µmol/l forskolin (FSK) and various concentrations (0.01 pmol/l to 100 […]
as §4, §5, §6, §7, §8

[3] = system: normonatremic Sprague-Dawley rats; experiment: Effects of s.c. administration on metabolic parameters in normonatremic rats; type: in vivo, rat
patients = settings: cited from earlier work
hyponatremic rats = experiment: Plasma AVP and apelin-IR levels in hyponatremic rats (RIA); type: in vivo, rat
Protocol: as §9
(§25) 189 until use for apelin RIA.
(§26) The supernatants were collected and
(§27) The samples were dried and dissolved in
(§28) 201 centrifuged (17000 x g, 4°C, 20 min). The supernatant (4 ml) was collected, and mixed with
(§29) The columns were then treated as described in
(§30) Samples (0.1ml) w ere mixed with 125I-
as §21, §22
(§31) 216 incubated for 10 min at room temperature.
(§32) This antiserum identified the apelin present in the
(§33) Most of the apelin in human plasma was
(§34) 252 TechMedILL platfor m (Illkirch) reviewed and approved by the agriculture ministry regulating
(§35) 256 Male Sprague-Dawley rats were killed by decapitation, and trunk blood was collected on ice
(§36) 257 (into 50 µl of 0.3M EDTA (pH 7.4) per 1 ml of blood). Samples were centrifuged (2,600 x g,
(§37) 258 4°C, 20 min), and the resulting plasma was split into 500 µl aliquots, to which we added 168
(§38) 259 µl of 3N HCl before storage at -80°C. The AVP RIA was performed as previously described
(§39) 260 5, using a specific AVP-[Arg8] antibody (final dilution, 1/4.5) and [125I]-(Tyr2Arg8)-AVP
(§40) 261 (2200 Ci/mmol, Perkin-Elmer, Billerica, MA; 15000 dpm) as a tracer. […]

[4] = system: hyponatremic rats (AVP 30 ng/h); experiment: Effects of LIT01-196 and tolvaptan in rat model of AVP-induced hyponatremia; type: in vivo
Protocol: Meloxicam was administered postoperatively for analgesia. Animals were then individually housed in metabolic cages (Techniplast), and given a semi-liquid diet consisting of 25 ml Gel-Diet Breeding-10 (SAFE, Augy, France) mixed with 25 ml tap water per day, with water available ad libitum. Animal weight, water, and food consumption were measured daily. Urine was collected daily, urinary electrolytes (Na^+, K^+, Cl^−) were determined with an ISE 3000 (Caretium Medical Instruments, Shenzhen, China) and urinary osmolality was measured with a Cryobasic 1 osmometer (Astori Tecnica, Poncarale, Italy). Blood samples were collected on ice, before implantation of the osmotic minipump, and before drug administration, under isoflurane anesthesia, from the tail vein (4 µl of lithium heparinate (1600 IU/ml) for 400 µl of blood). The blood samples were immediately centrifuged (4 °C, 2600 × g, 20 min), and plasma electrolyte (Na^+, K^+, Cl^−) levels were quantified with an ISE 3000. On the last day of the experiment, blood was also collected on ice by intracardiac puncture. This blood sample was collected into lithium heparinate under isoflurane anesthesia; plasma electrolyte levels were determined as described above and the animals were immediately killed by carbon monoxide inhalation.

control rats = experiment: Plasma AVP and apelin-IR levels in control rats (RIA); type: in vivo, rat; design: Apelin / AVP: unit not given here
Protocol: as §9, §25, §26, §27, §28, §29, §30, §21, §22, §31, §32, §33, §34, §35, §36, §37, §38, §39, §40

anti-K17F serum = experiment: Inhibition of [125I]-pE13F binding to anti-K17F serum (apelin RIA, cross-reactivity); design: species or system rabbit; settings: read-out: IC50, recognition by antibody directed against K17F, antiserum 1/4500
Protocol: as §29, §30, §21, §22, §31, §32
Most of the apelin in human plasma was […]

[5] = 900 nmol/kg SC (tolvaptan 0.4.SC [sic]), normonatremic rats, single animals

cAMP production, Value (Fig 2B) (human V2-R; experiment 1): 139.382
cAMP production, Value (Fig 2B) (human V2-R; experiment 2): 85.1109
cAMP production, Value (Fig 2B) (human V2-R; experiment 3): 116.78
cAMP production, Value (Fig 2B) (human V2-R; experiment 4): 128.996
Compound: C=C[C@@]1(C)CC(=O)[C@]2(O)[C@@]3(C)[C@@H](O)CCC(C)(C)[C@@H]3[C@H](O)[C@H](OC(C)=O)[C@@]2(C)O1 [FSK]

half-life (in vivo [1]): 0.833 min
Ki (rat apelin-R): 0.14 ± 0.02 nM
half-life (in vivo [2]): 0.733 min
IC50 (rat apelin-R-EGFP): 0.6 ± 0.2 nM
Compound: CSCC[C@H](NC(=O)[C@@H]1CCCN1C(=O)CNC(=O)[C@H](CCCCN)NC(=O)[C@H](Cc1cnc[nH]1)NC(=O)[C@H](CO)NC(=O)[C@H](CC(C)C)NC(=O)[C@H](CCCNC(=N)N)NC(=O)[C@@H]1CCCN1C(=O)[C@H](CCCNC(=N)N)NC(=O)[C@H](CCC(N)=O)NC(=O)[C@H](CCCNC(=N)N)NC(=O)[C@H](CCCNC(=N)N)NC(=O)[C@H](Cc1ccccc1)NC(=O)[C@@H](N)CCCCN)C(=O)N1CCC[C@H]1C(=O)N[C@@H](Cc1ccccc1)C(=O)O [K17F, reference compound]

Compound: Cc1ccccc1C(=O)Nc1ccc(C(=O)N2CCCC(O)c3cc(Cl)ccc32)c(C)c1 (stereo not shown) [tolvaptan, reference compound]
Urine osmolality (3 hours) [3, 5]: 400 and 540 and 520 and 404 and 412
Urine osmolality (6 hours) [3, 5]: 484 and 656 and 532 and 492 and 496
Urine osmolality (24 hours) [3, 5]: 772 and 1396 and 1244 and 1552 and 1324 and 1300 and 1592 and 1040 and 1416 and 1184 and 2300 and 1048
increase in water intake ([3]; 900 nmol/kg s.c., 24 h): 37%
increase in water intake to food intake ratio ([3]; 900 nmol/kg s.c., 24 h): 24%
increase in 24-h urine output relative to saline ([3]; 900 nmol/kg s.c., normonatremic rats): 77%
decrease in urine osmolality ([3]; 900 nmol/kg s.c., normonatremic rats, 24 h): 40%
Sodium excretion fraction ([3]; LIT01-196 900 nmol/kg, tolvaptan 6700 nmol/kg s.c., 24 h): not changed
Water excretion fraction ([3]; Tolvaptan 6700 nmol/kg SC, individual animals (Fig. S4C source data)): 0.8154 and 1.026 and 2.311 and 0.5818 and 0.7955 and 0.7
Sodium excretion fraction ([3]; Tolvaptan 6700 nmol/kg SC, individual animals (Fig. S4D source data)): 0.6016 and 0.6502 and 0.5049 and 0.3349 and 0.4657 and 0.6432
Water to food ratio ([3]; normonatremic rats, 900 nmol/kg SC, individual animal values (source data Fig. 4L)): 1.532 and 1.653 and 1.89 and 1.641 and 1.608
patients with overly rapid sodium correction (patients; 7.5 mg per day, hyponatremia patients, baseline serum sodium <125 mmol/l): 23%
patients with ADPKD discontinuing treatment for aquaresis-related events (patients): 8%
plasma AVP and apelin levels versus AVP + saline (hyponatremic rats; 6700 nmol/kg s.c., 3 h): similar
Plasma AVP (hyponatremic rats; AVP 30 ng/h rats, individual animals (Fig. 6A source data)): 39.2062 and 41.6048 and 44.1878 and 29.3355 and 51.7522 and 30.996 and 44.9258 and 45.018
Plasma apelin (hyponatremic rats; AVP 30 ng/h rats, individual animals (Fig. 6B source data)): 312 and 375 and 335 and 404 and 283 and 315 and 384 and 365
Apelin to AVP ratio (hyponatremic rats; AVP 30 ng/h rats, individual animals (Fig. 6C source data)): 7.958 and 9.013 and 7.581 and 13.7717 and 5.468 and 10.1626 and 8.547 and 8.108
increase in urine output 24 h after s.c. administration ([4]; 900 nmol/kg s.c., rats receiving 30 ng/h AVP and liquid diet): 9.5 ± 2.9 ml/24 h/100 g
increase in urine output 24 h after s.c. administration ([4]; 6700 nmol/kg s.c., rats receiving 30 ng/h AVP): 27 ± 9.0 ml/24 h/100 g
plasma apelin-IR levels versus control rats (control rats; 3 h after 6700 nmol/kg s.c.): similar
plasma apelin/AVP ratio versus saline (control rats; 3 h after 6700 nmol/kg s.c.): similar
plasma AVP levels, higher than in animals receiving saline (control rats; 3 h after s.c., tolvaptan 6700 nmol/kg, LIT01-196 900 nmol/kg): 147%
AVP (control rats; plasma AVP, Tolvaptan 6700 nmol/kg SC, individual animals (Fig. S4F source data)): 46.8225 and 42.0318 and 57.2512 and 20.2981 and 21.5164 and 46.682
Apelin (control rats; plasma apelin-IR, Tolvaptan 6700 nmol/kg SC, individual animals (Fig. S4E source data)): 782.319 and 460.81 and 574.125 and 749.499 and 564.407 and 576.365
apelinAVPratio (control rats; plasma apelin/AVP ratio, Tolvaptan 6700 nmol/kg SC, individual animals (Fig. S4G source data)): 16.7082 and 10.9634 and 10.0282 and 36.9246 and 26.2315 and 12.3466

Compound: Fluoro-K16P: not recognized by the antibody directed against K17F (KFRRQRPRLSHKGPMP; also: fluorescent label, site and dye not given here; UniProt Q9ULZ1 61-76, looked up, fragment) [reference compound]
IC50 (anti-K17F serum): > 1000 nM
